{"source": "paper PMC8296573", "about": "“Synthesis and Biological Evaluation of Fingolimod Derivatives as Antibacterial Agents” (ACS Omega, 2021)", "key": {"S. aureus ATCC 12598": {"test_system": "S. aureus ATCC 12598", "test": "Antibacterial activity, pre-exposure", "type": "cell-based, Staphylococcus aureus", "settings": "for Average inhibition %, biofilms viability / Average inhibition %, planktonic cells viability / inhibition at 5 µM / inhibition at 10 µM / inhibition at 15 µM / inhibition at 25 µM: S. aureus ATCC 12598, pre-exposure, ± SD", "summary_of_the_method": "(§1)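 Read-outs were turbidity and resazurin reduction for planktonic cells, and resazurin followed by crystal violet biomass (A595) for biofilms. Compounds were present from inoculation onward, with 18 h aerobic growth at 37 °C under shaking.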"}, "S. aureus P2": {"test_system": "S. aureus P2", "test": "Antibacterial activity, pre-exposure", "type": "cell-based, Staphylococcus aureus", "settings": "for Average inhibition %, biofilms viability / Average inhibition %, planktonic cells viability / inhibition at 5 µM / inhibition at 10 µM / inhibition at 15 µM / inhibition at 25 µM: S. aureus P2, pre-exposure, ± SD", "summary_of_the_method": "as §1"}, "[1]": {"test": "Cytotoxicity, resazurin staining assay", "type": "cell-based, human", "settings": "human, 24 h incubation", "summary_of_the_method": "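A549 and HEp-2 cells (1 × 10^4/well) attached for 24 h before compound addition; HL-60 seeded directly with compounds; 0.25% DMSO final, 24 h exposure. Adherent cells then washed and given 20 μM resazurin for 2 h; HL-60 received resazurin directly for 4 h; fluorescence read-out, 1% Triton X-100 as positive control.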"}, "[2]": {"test": "Colloidal aggregation by nephelometry", "type": "physicochemical", "settings": "25 µM", "method": "3. Aggregation data (Figure S3)\nPotential colloidal aggregation in biological assays was studied at five concentrations (5 µM, 10 µM, 15 µM,\n25 µM, 50 µM). The original assay conditions were simulated, and the light scattering of potential aggregates\nin the mixture was studied by nephelometric methods using Nepheloskan Ascent (Labsystems, Finland).\nAggregation of the blank and compounds fingolimod, 43, 45, 55, 62, 79 and 82 were measured as triplicates\nfrom one independent experiment at 400 V and at room temperature.\nformation at 50 µM. […] However, at 15\nµM, 10 µM and 5 µM, the obtained values were close to those observed by blank, therefore indicating only\nminor or no detectable aggregation.\nFigure S3: Aggregation data for fingolimod and compounds 43, 45, 55, 62, 79, 82. RNU = relative nephelometric unit.\nThe data are shown as the mean ± SD and normalized to the blank.\n(1 picture or pasted object on this page, not shown here)"}}, "note": "Read-outs that look alike come from different tables or passages of the source."}
{"smiles": "CCCCCCCCc1ccc(CCC(N)(CO)CO)cc1", "note": "[fingolimod, Fingolimod]", "values": [{"measurement": "Average inhibition %, biofilms viability", "setting": "S. aureus ATCC 12598; 5 µM", "value": "16.9 ± 2.9", "unit": "%"}, {"measurement": "Average inhibition %, planktonic cells viability", "setting": "S. aureus ATCC 12598; 5 µM", "value": "2.9 ± 2.9", "unit": "%"}, {"measurement": "Average inhibition %, biofilms viability", "setting": "S. aureus ATCC 12598; 10 µM", "value": "35.8 ± 17.9", "unit": "%"}, {"measurement": "Average inhibition %, planktonic cells viability", "setting": "S. aureus ATCC 12598; 10 µM", "value": "34 ± 29.5", "unit": "%"}, {"measurement": "Average inhibition %, biofilms viability", "setting": "S. aureus ATCC 12598; 15 µM", "value": "99.2 ± 0.5", "unit": "%"}, {"measurement": "Average inhibition %, planktonic cells viability", "setting": "S. aureus ATCC 12598; 15 µM", "value": "99.7 ± 0", "unit": "%"}, {"measurement": "Average inhibition %, biofilms viability", "setting": "S. aureus ATCC 12598; 25 µM", "value": "99.6 ± 0.3", "unit": "%"}, {"measurement": "Average inhibition %, planktonic cells viability", "setting": "S. aureus ATCC 12598; 25 µM", "value": "99.7 ± 0", "unit": "%"}, {"measurement": "inhibition at 5 µM", "setting": "S. aureus ATCC 12598; Staphylococcus aureus, ATCC12598, 5 µM, read-out: Average inhibition %, biofilms biomass", "value": "18.5 ± 17.7", "unit": "%"}, {"measurement": "inhibition at 5 µM", "setting": "S. aureus ATCC 12598; Staphylococcus aureus, ATCC12598, 5 µM, read-out: Average inhibition %, planktonic cells turbidity", "value": "6.3 ± 8.7", "unit": "%"}, {"measurement": "inhibition at 10 µM", "setting": "S. aureus ATCC 12598; Staphylococcus aureus, ATCC12598, 10 µM, read-out: Average inhibition %, biofilms biomass", "value": "43.2 ± 15.8", "unit": "%"}, {"measurement": "inhibition at 10 µM", "setting": "S. aureus ATCC 12598; Staphylococcus aureus, ATCC12598, 10 µM, read-out: Average inhibition %, planktonic cells turbidity", "value": "21.5 ± 27.1", "unit": "%"}, {"measurement": "inhibition at 15 µM", "setting": "S. aureus ATCC 12598; Staphylococcus aureus, ATCC12598, 15 µM, read-out: Average inhibition %, biofilms biomass", "value": "94.5 ± 1.1", "unit": "%"}, {"measurement": "inhibition at 15 µM", "setting": "S. aureus ATCC 12598; Staphylococcus aureus, ATCC12598, 15 µM, read-out: Average inhibition %, planktonic cells turbidity", "value": "99.6 ± 0.1", "unit": "%"}, {"measurement": "inhibition at 25 µM", "setting": "S. aureus ATCC 12598; Staphylococcus aureus, ATCC12598, 25 µM, read-out: Average inhibition %, biofilms biomass", "value": "95.2 ± 0.4", "unit": "%"}, {"measurement": "inhibition at 25 µM", "setting": "S. aureus ATCC 12598; Staphylococcus aureus, ATCC12598, 25 µM, read-out: Average inhibition %, planktonic cells turbidity", "value": "99.2 ± 0.1", "unit": "%"}, {"measurement": "MIC", "setting": "S. aureus ATCC 12598; Staphylococcus aureus, ATCC12598, pre-exposure, 18 h, read-out: MIC S. aureus ATCC 12598", "value": 15, "unit": "µM"}, {"measurement": "Average inhibition %, biofilms viability", "setting": "S. aureus P2; 5 µM", "value": "18.2 ± 17", "unit": "%"}, {"measurement": "Average inhibition %, planktonic cells viability", "setting": "S. aureus P2; 5 µM", "value": "4.3 ± 7.4", "unit": "%"}, {"measurement": "Average inhibition %, biofilms viability", "setting": "S. aureus P2; 10 µM", "value": "55.4 ± 38", "unit": "%"}, {"measurement": "Average inhibition %, planktonic cells viability", "setting": "S. aureus P2; 10 µM", "value": "45 ± 45.6", "unit": "%"}, {"measurement": "Average inhibition %, biofilms viability", "setting": "S. aureus P2; 15 µM", "value": "99.8 ± 0", "unit": "%"}, {"measurement": "Average inhibition %, planktonic cells viability", "setting": "S. aureus P2; 15 µM", "value": "99.8 ± 0", "unit": "%"}, {"measurement": "Average inhibition %, biofilms viability", "setting": "S. aureus P2; 25 µM", "value": "99.8 ± 0.1", "unit": "%"}, {"measurement": "Average inhibition %, planktonic cells viability", "setting": "S. aureus P2; 25 µM", "value": "99.7 ± 0", "unit": "%"}, {"measurement": "MIC", "setting": "S. aureus P2; Staphylococcus aureus, P2, pre-exposure, 18 h", "value": 15, "unit": "µM"}, {"measurement": "inhibition at 5 µM", "setting": "S. aureus P2; Staphylococcus aureus, 5 µM, read-out: Average inhibition %, biofilms biomass", "value": "34.9 ± 19", "unit": "%"}, {"measurement": "inhibition at 5 µM", "setting": "S. aureus P2; Staphylococcus aureus, 5 µM, read-out: Average inhibition %, planktonic cells turbidity", "value": "3.3 ± 5.8", "unit": "%"}, {"measurement": "inhibition at 10 µM", "setting": "S. aureus P2; Staphylococcus aureus, 10 µM, read-out: Average inhibition %, biofilms biomass", "value": "64.3 ± 29.1", "unit": "%"}, {"measurement": "inhibition at 10 µM", "setting": "S. aureus P2; Staphylococcus aureus, 10 µM, read-out: Average inhibition %, planktonic cells turbidity", "value": "39.5 ± 45.1", "unit": "%"}, {"measurement": "inhibition at 15 µM", "setting": "S. aureus P2; Staphylococcus aureus, 15 µM, read-out: Average inhibition %, biofilms biomass", "value": "98.3 ± 0.1", "unit": "%"}, {"measurement": "inhibition at 15 µM", "setting": "S. aureus P2; Staphylococcus aureus, 15 µM, read-out: Average inhibition %, planktonic cells turbidity", "value": 99.6, "unit": "%"}, {"measurement": "inhibition at 25 µM", "setting": "S. aureus P2; Staphylococcus aureus, 25 µM, read-out: Average inhibition %, biofilms biomass", "value": "98 ± 0.4", "unit": "%"}, {"measurement": "inhibition at 25 µM", "setting": "S. aureus P2; Staphylococcus aureus, 25 µM, read-out: Average inhibition %, planktonic cells turbidity", "value": "99.3 ± 0.1", "unit": "%"}, {"measurement": "CC50 at 24 h", "setting": "[1]; A549 cells", "value": "> 40", "unit": "µM"}, {"measurement": "CC50 at 24 h", "setting": "[1]; HEp-2 cells", "value": "> 40", "unit": "µM"}, {"measurement": "CC50 at 24 h", "setting": "[1]; HL-60 cells", "value": "36.1 ± 13.4", "unit": "µM"}, {"measurement": "Aggregation (nephelometry)", "setting": "[2]", "value": "potential aggregation"}]}
